# Test results published in patent publication US7790474B1, “p53 modulators” (Schering Corporation, priority 2005, dated 2010).
# Test system: DLD-1 human colon adenocarcinoma cells
# Assay: In vivo anti-tumor study, unstaged model
# Set-up: species or system Nude mice
# Details: 10 mpk orally every 12 hours for 31 days, dosing from day 4
# Experimental: Unstaged Model. In this model, the therapy was started immediately after the tumor cells had been inoculated. Nude mice (5-6 week old females) were inoculated with 5×10^6 DLD-1 human colon adenocarcinoma cells on day 1, and randomized on day 3. The dosing of these mice was started on day 4. Groups 1 to 4, having 10 mice in each group, were dosed orally every 12 hours with vehicle,
# [drawing 33] 50 mpk, respectively, for 31 days. All animals were carefully monitored at least daily and each tumor was measured twice a week. The tumor growth inhibition level observed is set forth below in Table 3.
row,Structure (SMILES),"% inhibition (tumor growth), unstaged model"
1,CN(C)CCCNc1nc(CN2CCN(C(c3ccc(Cl)cc3)c3ccc(Cl)cc3)CC2)nc2ccccc12 [drawing 34],48.30%

# Same assay, conditions: 30 mpk orally every 12 hours for 31 days, dosing from day 4
row,Structure (SMILES),"% inhibition (tumor growth), unstaged model"
1,CN(C)CCCNc1nc(CN2CCN(C(c3ccc(Cl)cc3)c3ccc(Cl)cc3)CC2)nc2ccccc12 [drawing 34],43.23%

# Same assay, conditions: 50 mpk orally every 12 hours for 31 days, dosing from day 4
row,Structure (SMILES),"% inhibition (tumor growth), unstaged model"
1,CN(C)CCCNc1nc(CN2CCN(C(c3ccc(Cl)cc3)c3ccc(Cl)cc3)CC2)nc2ccccc12 [drawing 34],78.96%

# Test system: DLD-1 human colon adenocarcinoma cells
# Assay: In vivo anti-tumor study, staged model
# Set-up: species or system Nude mice
# Details: 10 mpk orally every 12 hours for 26 days, dosing from day 10
# Experimental: Staged Model. In this model the initiation of therapy was delayed until the tumors had reached a certain volume. Nude mice (5-6 week old females) were inoculated with 5×10^6 DLD-1 human colon adenocarcinoma cells on day 1, and then randomized on day 10. The dosing of these mice was started on day 10. Groups 1 to 5, having 10 mice in each group, were dosed orally every 12 hours with no treatment, vehicle,
# [drawing 36] 50 mpk, respectively, for 26 days. All animals were carefully monitored at least daily and each tumor was measured twice a week. The tumor growth inhibition level observed is set forth below in Table 4.
row,Structure (SMILES),"% inhibition (tumor growth), staged model"
1,CN(C)CCCNc1nc(CN2CCN(C(c3ccc(Cl)cc3)c3ccc(Cl)cc3)CC2)nc2ccccc12 [drawing 37],10.15%

# Same assay, conditions: 30 mpk orally every 12 hours for 26 days, dosing from day 10
row,Structure (SMILES),"% inhibition (tumor growth), staged model"
1,CN(C)CCCNc1nc(CN2CCN(C(c3ccc(Cl)cc3)c3ccc(Cl)cc3)CC2)nc2ccccc12 [drawing 37],14.73%

# Same assay, conditions: 50 mpk orally every 12 hours for 26 days, dosing from day 10
row,Structure (SMILES),"% inhibition (tumor growth), staged model"
1,CN(C)CCCNc1nc(CN2CCN(C(c3ccc(Cl)cc3)c3ccc(Cl)cc3)CC2)nc2ccccc12 [drawing 37],44.31%

# Test system: GST-p53 DNA binding domain (aa 92-aa 312)
# Assay: Scintillation Proximity Assay (displacement of 3H-labeled p53 binder)
# Details: percentage of 3H-labeled ligand remaining bound, number in brackets = average of n
# Experimental: [drawing 38] (^3H at C bearing the chlorophenyl groups and the piperazinyl group), a radiolabeled small molecule which binds to p53, and the GST-p53 DNA binding domain (aa 92-aa 312), a quantitative screening assay was used to determine if various molecules comprise p53 binding activity. The assay is based on Scintillation Proximity Assay (SPA) technology. The complex of GST-p53,
# [drawing 39] and Glutathione-SPA beads (Amersham Biosciences) were incubated with mixing for 1 hour at room temperature in the presence of the compounds to be screened. The signal was read on a Microbeta.
# The numerical values expressed refer to the percentage of labeled
# [drawing 40] remaining bound to the mutant p53 protein after exposure to the indicated compound.
row,SPA ASSAY % Residual T @ 2 ug/mL of drug (Average of),Structure (SMILES)
1,64.1%,CN(C)CCCNc1nc(CN(C)Cc2cccc(F)c2)nc2ccccc12 [Formula 67]
2,52.9%,CN(C)CCCNc1nc(CN(C)Cc2cccc3ccccc23)nc2ccccc12 [Formula 82]
3,48.4%,COc1ccc(Cl)cc1NC(=O)N(C)Cc1nc(NCCCN(C)C)c2ccccc2n1 [Formula 112]
4,28.7(3) %,CN(C)CCCNc1nc(CN(C)C2CCC3CCCCC3C2)nc2ccccc12 (stereo not drawn) [Formula 102]
5,57.7%,CN(C)CCCNc1nc(CN(C)C2CCCC(C(F)(F)F)C2)nc2ccccc12 (stereo not drawn) [Formula 105]
6,45.9 (3) %,CN(C)CCCNc1nc(CN(C)Cc2cc3ccccc3o2)nc2ccccc12 [Formula 78]
7,42.6%,CNCc1nc(NCCCN(C)C)c2ccccc2n1 [Formula 36]
8,50.0 (3) %,CCC(C)CN(C)Cc1nc(NCCCN(C)C)c2ccccc2n1 (stereo not drawn) [Formula 62]
9,52.7%,CN(C)CCCNc1nc(CN(C)Cc2ccccc2C#N)nc2ccccc12 [Formula 68]
10,23.6 (3) %,Cc1c(CN(C)Cc2nc(NCCCN(C)C)c3ccccc3n2)sc2ccccc12 [Formula 88]
11,61.1%,CN(C)CCCNc1nc(CN(C)Cc2ccc(C#Cc3ccccc3)cc2)nc2ccccc12 [Formula 92]
12,45.1 (3) %,CN(C)CCCNc1nc(CN(C)Cc2cccn2S(=O)(=O)c2ccccc2)nc2ccccc12 [Formula 93]
13,50.7 (3) %,CN(C)CCCNc1nc(CN(C)Cc2ccoc2)nc2ccccc12 [Formula 64]
14,45.9 (3) %,CN(C)CCCNc1nc(CN(C)Cc2ccc3ccccc3c2)nc2ccccc12 [Formula 83]

# More lines, now with the values behind:
row,Structure (SMILES),SPA ASSAY % Residual T @ 2 ug/mL of drug (Average of)
1,COC(=O)[C@@H](Nc1nc(CNC(=O)Nc2ccccc2C(F)(F)F)nc2ccccc12)C(C)C [Formula 54],48.1%
2,COC(=O)[C@@H](Nc1nc(CNC(=O)Nc2ccc(Cl)c(Cl)c2)nc2ccccc12)C(C)C [Formula 55],57.0%
3,CN(C)CCC[C@H](Nc1nc(CN2CCN(C(c3ccc(Cl)cc3)c3ccc(Cl)cc3)CC2)nc2ccccc12)C(N)=O [Formula 118],58.6%
4,COC(=O)[C@@H](Nc1nc(CN2CCN(C(=O)Nc3ccc(C(C)C)cc3)CC2)nc2ccccc12)C(C)C [Formula 11],39.5%
5,CN(C)[C@@H]1CCN(c2nc(CN3CCN(C(c4ccc(Cl)cc4)c4ccc(Cl)cc4)CC3)nc3ccccc23)C1 [Formula 50],53.0%
6,CN(C)CCCNc1nc(CN2CCN(C(c3ccccc3)c3ccc(OC(F)(F)F)cc3)CC2)nc2ccccc12 (stereo not drawn) [Formula 10],46.1%
7,COC(=O)C1CCN(c2nc(CN3CCN(C(c4ccc(Cl)cc4)c4ccc(Cl)cc4)CC3)nc3ccccc23)CC1 [Formula 53],62.7%
8,O=c1[nH]c2ccccc2n1C1CCN(c2nc(CN3CCN(C(c4ccc(Cl)cc4)c4ccc(Cl)cc4)CC3)nc3ccccc23)CC1 [Formula 18],47.9%
9,O=C(C1CCCO1)N1CCN(c2nc(CN3CCN(C(c4ccc(Cl)cc4)c4ccc(Cl)cc4)CC3)nc3ccccc23)CC1 (stereo not drawn) [Formula 48],66.0%
10,CN(C)CCCNc1nc(CN2CCN(Cc3cccc4cc[nH]c34)CC2)nc2ccccc12 [Formula 13],37.9%
11,Clc1ccc(C(c2ccc(Cl)cc2)N2CCN(Cc3nc(N4CCc5ccccc5C4)c4ccccc4n3)CC2)cc1 [Formula 44],83.9%
12,CC(C)[C@H](Nc1nc(CNC(=O)N[C@H](C)c2ccccc2)nc2ccccc12)C(N)=O [Formula 59],56.8%
13,CN(C)CC[C@H](Nc1nc(CN2CCN(C(c3ccc(Cl)cc3)c3ccc(Cl)cc3)CC2)nc2ccccc12)C(N)=O [Formula 115],44.8%
14,CN(Cc1ccccc1)c1nc(CN2CCN(C(c3ccc(Cl)cc3)c3ccc(Cl)cc3)CC2)nc2ccccc12 [Formula 43],80.7%
15,CN(C)CCCOc1nc(CN2CCN(C(c3ccc(Cl)cc3)c3ccc(Cl)cc3)CC2)nc2ccccc12 [Formula 37],77.0%
16,Clc1ccc(C(c2ccc(Cl)cc2)N2CCN(Cc3nc(N4CCN(c5ccccc5)CC4)c4ccccc4n3)CC2)cc1 [Formula 46],87.5%
